The text below walks through data of article PMC8724216, “Biochemical and structural characterization of beta-carbonic anhydrase from the parasite Trichomonas vaginalis” (Journal of Molecular Medicine (Berlin, Germany), 2021).

pKi: −log10 of the molar value.

The target of assay [1] is T1, TvaCA2 (Trichomonas vaginalis, UniProt A2DLG4).
T1 construct: gene TVAG_268150; recombinant in E. coli BL21 Star (DE3), pBVboostFG; 6xHis-tag removed by thrombin; 185 residues; homodimer, zinc
T1 sequence (A2DLG4 1-184): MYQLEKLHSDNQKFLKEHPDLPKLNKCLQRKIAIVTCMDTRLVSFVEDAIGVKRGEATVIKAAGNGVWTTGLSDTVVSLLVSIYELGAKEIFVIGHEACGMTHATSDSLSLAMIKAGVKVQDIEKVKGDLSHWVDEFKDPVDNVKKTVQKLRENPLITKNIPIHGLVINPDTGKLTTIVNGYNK
In words: stopped-flow CO2 hydration, phenol red. The assay is classed as biochemical. Conditions: read-out: TvaCA2 β.

Assay [2] addresses T1, TvaCA2. The assay can be described thus: biochemical. Also noted: stopped-flow CO2 hydration, phenol red absorbance at 557 nm, 20 °C, pH 7.5, 15 min preincubation. Conditions: read-out: TvaCA2 β. Here is the method: CA-catalyzed CO2 hydration activity was investigated with an Applied Photophysics stopped-flow instrument at 20 °C [20]. Twenty millimolar Hepes was used as buffer (pH 7.5) with 20 mM Na2SO4 (for maintaining a constant ionic strength). Phenol red of 0.2 mM was used as a pH indicator, working at a maximum absorbance of 557 nm. The initial rates of the CA-catalyzed CO2 hydration reaction were followed for 10–100 s. CO2 concentrations of 1.7–17 mM were used to determine the kinetic parameters and inhibition constants. For each inhibitor, the initial velocity was determined by using ≥ 6 traces of the initial 5–10% of the reaction. The uncatalyzed rates were determined similarly and subtracted from the total observed rates. DSMO was used at 5% to make the stock solution, from which 0.1 mM inhibitor solutions were prepared in dH2O. Subsequently, dilutions up to 0.01 nM were prepared with dH2O. Inhibitor and enzyme solutions were preincubated together (15 min, room temperature) prior to the assay to allow the formation of the enzyme–inhibitor complex. The inhibition constants were obtained by nonlinear least-squares methods using PRISM 3 and represent the means from ≥ 3 different measurements. The gene sequence of the second β-CA of T. vaginalis (TvaCA2) was retrieved from Universal Protein Resource Database UniProt (protein entry A2DLG4). An Escherichia coli expression system with a multipromoter vector, pBVboostFG (Online Resource 1), was used for the expression of TvaCA2. Gene synthesis and subcloning were performed by GeneArt (Thermo Fisher Scientific, Waltham, USA). The cells (OneShot® BL21 Star™ (DE3) Chemically Competent Cells, #C601003, Thermo Fisher Scientific, Waltham, USA) were cultured in an orbital shaker (200 rpm, 37 °C) in Luria–Bertani (LB) medium supplemented with 10 mg/mL gentamicin (1:1000). The cells were harvested via centrifugation (4 °C, 15 min, 5000 × g) after reaching an optical density of 0.4–0.6, and they were mechanically disrupted with an EmulsiFlex-C3 homogenizer (AVESTIN, Ottawa, Canada) in 50 mM Na2HPO4, 0.5 M NaCl, and 50 mM imidazole binding buffer (BB; pH 8.0), and centrifuged (13,000 × g, 15 min, 4 °C). […] After incubation, the resin was packed into a chromatography column with an EMD Millipore™ vacuum filtering flask (#XX1004705, Merck, Darmstad, Germany). The protein was eluted with 50 mM Na2HPO4, 0.5 M NaCl, and 350 mM imidazole (pH 7.0). The 6xHis-tag was removed by thrombin (#RECOMT, Sigma-Aldrich, St. Louis, USA) according to the Thrombin CleanCleave™ Kit manual (Sigma-Aldrich, St. Louis, USA) followed by Ni^2+-NTA affinity chromatography. NanoDrop One (Thermo Fisher Scientific, Waltham, USA) was used to determine the protein yield, and the quality of the purified protein was analyzed by SDS-PAGE (sodium dodecyl sulfate–polyacrylamide gel electrophoresis) using a 12% polyacrylamide gel visualized with PageBlue Protein staining solution (Thermo Fisher Scientific, #24,620, Waltham, USA). The obtained polypeptide bands of the SDS-PAGE gel were identified using tandem mass spectrometry (MS/MS; Meilahti Clinical Proteomics Core Facility, […]

Consider `CCN[C@H]1CN(CCCOC)S(=O)(=O)c2sc(S(N)(=O)=O)cc21` [BRZ], for which the pKi on TvaCA2 [1] was 5.49.

As to `NS(=O)(=O)c1nnc(NS(=O)(=O)c2ccccc2)s1` [BZA], on TvaCA2 [1], the pKi was 5.38.

Consider `Cc1ccc(-c2cc(C(F)(F)F)nn2-c2ccc(S(N)(=O)=O)cc2)cc1` [CLX, celecoxib], for which, at TvaCA2 [1], the pKi was below 5.00.

For `NS(=O)(=O)c1cc2c(cc1Cl)NCNS2(=O)=O` [HCT], the pKi at TvaCA2 [1] was 5.51.

In the case of `NS(=O)(=O)c1ccc(S(=O)(=O)Nc2cccc3c(Cl)c[nH]c23)cc1` [IND, indisulam], the pKi at TvaCA2 [1] is below 5.00.

On to `CC(=O)N=c1sc(S(N)(=O)=O)nn1C` [MZA, methazolamide], for which, at TvaCA2 [1], the pKi was 6.41.

Take `O=C1NS(=O)(=O)c2ccccc21` [SAC, saccharin]: the pKi on TvaCA2 [1] was below 5.00.

For the compound `CCN1CCCC1CNC(=O)c1cc(S(N)(=O)=O)ccc1OC` (centres unmarked) [SLP, sulpride], the pKi on TvaCA2 [1] is below 5.00.

In the case of `NS(=O)(=O)c1ccc(N2CCCCS2(=O)=O)cc1` [SLT, sulthiame], the pKi on TvaCA2 [1] was below 5.00.

`CC1(C)O[C@@H]2[C@@H](CO[C@@]3(COS(N)(=O)=O)OC(C)(C)O[C@@H]23)O1` [TPM, topiramate]: the pKi at TvaCA2 [1] was below 5.00.

With `Cc1onc(-c2ccccc2)c1-c1ccc(S(N)(=O)=O)cc1` [VLX, valdecoxib], the pKi at TvaCA2 [1] is below 5.00.

Regarding `NS(=O)(=O)Cc1noc2ccccc12` [ZNS, zonisamide], on TvaCA2 [1], the pKi was below 5.00.

For `Nc1cccc(S(N)(=O)=O)c1` [compound 01], the pKi at TvaCA2 [2] (inhibitor) was 5.41.

Take `Nc1ccc(S(N)(=O)=O)cc1` [compound 02]: at TvaCA2 [2], the pKi was 5.89.

Turning to `NS(=O)(=O)c1cccc(S(N)(=O)=O)c1` [compound 3, 1,3-disulfamoyl benzene], at TvaCA2 [1], the pKi is 6.35.

Turning to `Cc1ccc(S(N)(=O)=O)cc1` [compound 04], the pKi on TvaCA2 [2] was 5.89.

As for `NCc1ccc(S(N)(=O)=O)cc1` [compound 05], at TvaCA2 [2], the pKi is 5.38.

On to `NCCc1ccc(S(N)(=O)=O)cc1` [compound 06], for which the pKi at TvaCA2 [2] was 5.37.

Turning to `Nc1ccc(S(N)(=O)=O)cc1F` [compound 07], the pKi on TvaCA2 [2] was 5.89.

In the case of `Nc1ccc(S(N)(=O)=O)cc1Cl` [compound 08], the pKi on TvaCA2 [2] is 5.40.

Turning to `Nc1ccc(S(N)(=O)=O)cc1Br` [compound 9, 3-bromo-4-amino-benzenesulfonamide], the pKi at TvaCA2 [1] is below 5.00.

As to `NS(=O)(=O)c1cc(Cl)cc(Cl)c1O` [compound 10], the pKi on TvaCA2 [2] (inhibitor) was below 5.00.

On to `Nc1cc(C(F)(F)F)c(S(N)(=O)=O)cc1S(N)(=O)=O` [compound 11, 4-amino-6-trifluoromethyl-benzene-1,3-disulfonamide], for which, on TvaCA2 [1], the pKi is 6.36.

Regarding `Nc1cc(Cl)c(S(N)(=O)=O)cc1S(N)(=O)=O` [compound 12, 4-amino-6-chloro-1,3-benzenedisulfonamide], the pKi at TvaCA2 [1] was 6.42.

In the case of `Nc1nnc(S(N)(=O)=O)s1` [compound 13, 5-amino-1,3,4-thiadizole-2-sulfonamide], at TvaCA2 [1], the pKi is 5.94.

With `Cn1nc(S(N)(=O)=O)sc1=N` [compound 14], the pKi at TvaCA2 [2] is 5.79.

Take `NS(=O)(=O)c1ccc(C(=O)O)cc1` [compound 18]: at TvaCA2 [2], the pKi was 5.79.

`Nc1nccc(Nc2ccc(S(N)(=O)=O)cc2)n1` [compound 19]: on TvaCA2 [2] (inhibitor), the pKi was below 5.00.

Regarding `Nc1ccc(S(=O)(=O)Nc2nnc(S(N)(=O)=O)s2)cc1` [compound 20], on TvaCA2 [2], the pKi is 5.98.

Consider `NS(=O)(=O)c1ccc(CCNS(=O)(=O)c2ccc([N+](=O)[O-])cc2CO)cc1` [compound 21], for which the pKi at TvaCA2 [2] (inhibitor) is 5.38.

Regarding `Nc1ccc(S(=O)(=O)Nc2ccc(S(N)(=O)=O)cc2)cc1` [compound 22], the pKi at TvaCA2 [2] was 5.41.

As for `Nc1ccc(S(=O)(=O)NCc2ccc(S(N)(=O)=O)cc2)cc1` [compound 23], the pKi on TvaCA2 [2] is 5.65.
